Data published in paper PMC2233883 (The Journal of General Physiology, 2004).
pEC50: −log10 of the molar value.

Target: T1, MloK1 (Mesorhizobium japonicum, UniProt Q98GN8)
T1 sequence (Q98GN8 1-355): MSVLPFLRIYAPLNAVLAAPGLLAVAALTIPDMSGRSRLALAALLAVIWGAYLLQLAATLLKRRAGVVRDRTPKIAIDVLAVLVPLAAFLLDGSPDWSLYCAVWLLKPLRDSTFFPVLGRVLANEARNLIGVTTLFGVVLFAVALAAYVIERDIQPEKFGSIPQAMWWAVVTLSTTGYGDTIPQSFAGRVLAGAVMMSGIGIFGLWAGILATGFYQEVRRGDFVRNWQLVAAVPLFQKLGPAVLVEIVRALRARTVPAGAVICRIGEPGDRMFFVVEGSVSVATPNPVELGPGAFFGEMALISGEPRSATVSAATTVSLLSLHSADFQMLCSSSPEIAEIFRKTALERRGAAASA
Test: […]+ uptake into MloK1-reconstituted liposomes, dose-response
Type: biochemical

- pEC50: 6.22
Structure (SMILES): Nc1nc2c(ncn2[C@@H]2O[C@@H]3COP(=O)(O)O[C@H]3[C@H]2O)c(=O)[nH]1 [cGMP]
